Results published in PMC7824897, “Selection of the First ^99mTc-Labelled Somatostatin Receptor Subtype 2 Antagonist for Clinical Translation—Preclinical Assessment of Two Optimized Candidates” (Pharmaceuticals, 2020).

How the values were obtained:
[1] = biological target: T1, HEK-SST2 cells (human SST2 receptor) (Homo sapiens, UniProt P30874); assay: Internalization and cell-surface binding in HEK-SST2 cells; type: cell-based; settings: 37 °C
T1 construct: expressed in transfected cells; host or cells: HEK293 (HEK-SST2), provided by Prof; Stefan Schulz, Jena University Hospital

[2] = type: physicochemical; settings: pH 7.4
Procedure: Determination of the distribution coefficient (log D) was performed by the shake-flask method in 1:1 mixture of octanol/Phosphate buffered saline (PBS). Then, 50 µL of [^99mTc]Tc-TECANT-1 or [^99mTc]Tc-TECANT-2 solution was diluted up to 500 µL with PBS (pH 7.4; 8 mM phosphate). Next, 20 µL of this solution was added to six eppendorf tubes, each containing 500 µL octanol and 480 µL PBS. The samples were vortexed for 15 min at 1400 rpm followed by centrifugation for 2 min at 4500 rpm. Aliquots of 100 µL from each phase were taken and measured in a γ-counter. The log D was calculated as the average of the logarithmic values (n = 3, six technical replicates) of the ratio between the radioactivity in the octanol and the PBS phase.

[3] = biological target: T1, HEK-SST2 cells (human SST2 receptor); assay: Dissociation of cell-surface bound radiotracer with or without competitor; type: cell-based
in vivo = settings: female, mouse, 20 pmol, total radioactivity
[4] = design: species or system human
Excerpt: To account for various possible locations of the tumour, we used two S-values. One was the value for the liver and is representative for the liver lesions. Other was the “average abdominal S-value”, which was the average S-value for the following organs: stomach, liver, gallbladder, spleen, pancreas, small intestine, kidneys, large intestine, and adrenal glands. Estimated dose to various organs, average total body dose and effective dose are summarized in Table 3 for both radiotracers and two typical tumour locations.
Dosimetric calculations were based on the biodistribution of [^99mTc]Tc-TECANT-1 and [^99mTc]Tc-TECANT-2 (Table 3). […] Percent of injected activity per organ in a human model was evaluated according to the animal data extrapolation model:(2) (%IA/organ)human=[(%IA/g)mouse×Mmouse(g)]×(m(g)/M(kg))human
Here m is the organ mass and M is the total body weight of mouse or human. Average total weight of the mouse was measured, while human phantom has the total weight of 73 kg. The %IA/g and %IA/organ is the percentage of the injected activity concentration (i.e., per gram of tissue) and per organ, respectively. For the tumour, we assumed that the percent of injected activity uptake into the tumour is the same for mouse and human.
Subsequently, percentage of the injected activity per organ was folded with the decay curve of ^99mTc and interpolated with the exponential function. The interpolation function was used to estimate initial %ID/organ and the time-integrated activity concentration (TIAC). Absorbed dose per injected activity for various organs was calculated with the TIAC factors and S-values for a standard person from the OpenDose project. Effective dose was evaluated according to the ICRP 103 recommendations.
We also assumed that the remaining activity from the organs and tumour ends up in the bladder.

[5] = athymic nude-Foxn1^nu/Foxn1^+, Biodistribution Heart
[6] = athymic nude-Foxn1^nu/Foxn1^+, Biodistribution Liver
[7] = athymic nude-Foxn1^nu/Foxn1^+, Biodistribution Lung
[8] = athymic nude-Foxn1^nu/Foxn1^+, Biodistribution Pancreas
[9] = athymic nude-Foxn1^nu/Foxn1^+, Biodistribution Spleen
[10] = athymic nude-Foxn1nu/Foxn1+, Biodistribution Adrenals
[11] = athymic nude-Foxn1nu/Foxn1+, Biodistribution Blood
[12] = athymic nude-Foxn1nu/Foxn1+, Biodistribution Bone
[13] = athymic nude-Foxn1nu/Foxn1+, Biodistribution HEK-SST2 (+) tumour uptake
[14] = athymic nude-Foxn1nu/Foxn1+, Biodistribution Intestine
[15] = athymic nude-Foxn1nu/Foxn1+, Biodistribution Kidneys
[16] = athymic nude-Foxn1nu/Foxn1+, Biodistribution Muscle
[17] = athymic nude-Foxn1nu/Foxn1+, Biodistribution Pituitary
[18] = athymic nude-Foxn1nu/Foxn1+, Biodistribution Stomach

T1 sequence (P30874 whole entry): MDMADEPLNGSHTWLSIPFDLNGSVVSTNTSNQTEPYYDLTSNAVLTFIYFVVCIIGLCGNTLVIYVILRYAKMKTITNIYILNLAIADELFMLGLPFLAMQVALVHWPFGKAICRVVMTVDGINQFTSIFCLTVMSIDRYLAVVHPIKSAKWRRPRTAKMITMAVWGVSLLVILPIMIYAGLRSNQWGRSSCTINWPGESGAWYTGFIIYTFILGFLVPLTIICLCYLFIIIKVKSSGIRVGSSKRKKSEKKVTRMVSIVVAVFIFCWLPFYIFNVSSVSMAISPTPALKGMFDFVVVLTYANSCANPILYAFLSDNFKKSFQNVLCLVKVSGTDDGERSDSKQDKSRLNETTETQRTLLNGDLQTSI

Compound: C[C@@H](O)[C@@H]1NC(=O)[C@H](CCCCN)NC(=O)[C@@H](Cc2c[nH]c3ccccc23)NC(=O)[C@H](Cc2ccc(O)cc2)NC(=O)[C@H](NC(=O)[C@H](Cc2ccc(Cl)cc2)NC(=O)C(CNCCN)CNCCN)CSSC[C@@H](C(=O)N[C@H](Cc2ccc(O)cc2)C(N)=O)NC1=O [[^99mTc]Tc-TECANT-2, metal not drawn]
- internalization (internalized fraction) ([1]; 30 min): 4.4 ± 0.5%
- internalization (internalized fraction) ([1]; 4 h): 11.7 ± 1.4%
- cell surface binding ([1]; 4 h, % of total radioactivity added): 36.9 ± 8.5%
- logD [2]: -1.63 ± 0.16
- estimated dissociation half-life ([3]; absence of competitor): 40.3 min
- total binding remaining (dissociation assay) ([3]; after 4 h, 37 °C, absence of competitor): 27.2 ± 6.3%
- estimated dissociation half-life ([3]; presence of competitor): 7.5 min
- bound fraction still remaining in the cells ([3]; presence of excess of the competitor, 37 °C): 1.1 ± 0.1%
- tissue uptake at 1 h (in vivo; [5]): 1.64 ± 0.6 %ID/g
- tissue uptake at 4 h (in vivo; [5]): 0.26 ± 0.05 %ID/g
- tissue uptake at 24 h (in vivo; [5]): 0.05 ± 0.01 %ID/g
- tissue uptake at 1 h (in vivo; [6]): 5.38 ± 1.36 %ID/g
- tissue uptake at 4 h (in vivo; [6]): 3.72 ± 0.92 %ID/g
- tissue uptake at 24 h (in vivo; [6]): 1.07 ± 0.24 %ID/g
- tissue uptake at 1 h (in vivo; [7]): 17 ± 5.75 %ID/g
- tissue uptake at 4 h (in vivo; [7]): 2.52 ± 0.53 %ID/g
- tissue uptake at 24 h (in vivo; [7]): 0.3 ± 0.05 %ID/g
- tissue uptake at 1 h (in vivo; [8]): 16.4 ± 4.53 %ID/g
- tissue uptake at 4 h (in vivo; [8]): 1.96 ± 0.58 %ID/g
- tissue uptake at 24 h (in vivo; [8]): 0.12 ± 0.05 %ID/g
- tissue uptake at 1 h (in vivo; [9]): 1.61 ± 0.46 %ID/g
- tissue uptake at 4 h (in vivo; [9]): 0.55 ± 0.15 %ID/g
- tissue uptake at 24 h (in vivo; [9]): 0.24 ± 0.06 %ID/g
- tissue uptake at 1 h (in vivo; [10]): 5.14 ± 1.79 %ID/g
- tissue uptake at 4 h (in vivo; [10]): 1.25 ± 0.33 %ID/g
- tissue uptake at 24 h (in vivo; [10]): 0.73 ± 0.2 %ID/g
- tissue uptake at 1 h (in vivo; [11]): 1.8 ± 0.44 %ID/g
- tissue uptake at 4 h (in vivo; [11]): 0.23 ± 0.05 %ID/g
- tissue uptake at 24 h (in vivo; [11]): 0.03 ± 0.01 %ID/g
- tissue uptake at 1 h (in vivo; [12]): 1.67 ± 0.94 %ID/g
- tissue uptake at 4 h (in vivo; [12]): 0.41 ± 0.14 %ID/g
- tissue uptake at 24 h (in vivo; [12]): 0.2 ± 0.19 %ID/g
- tissue uptake at 1 h (in vivo; [13]): 19.1 ± 4.47 %ID/g
- tissue uptake at 4 h (in vivo; [13]): 28.4 ± 4.84 %ID/g
- tissue uptake at 24 h (in vivo; [13]): 11 ± 4.69 %ID/g
- tissue uptake at 4 h (in vivo; athymic nude-Foxn1nu/Foxn1+, Biodistribution HEK-SST2 (−) tumour uptake): 0.38 ± 0.13 %ID/g
- tissue uptake at 1 h (in vivo; [14]): 4.05 ± 1.12 %ID/g
- tissue uptake at 4 h (in vivo; [14]): 0.86 ± 0.4 %ID/g
- tissue uptake at 24 h (in vivo; [14]): 0.31 ± 0.17 %ID/g
- tissue uptake at 1 h (in vivo; [15]): 43.6 ± 11.4 %ID/g
- tissue uptake at 4 h (in vivo; [15]): 25.9 ± 5.23 %ID/g
- tissue uptake at 24 h (in vivo; [15]): 3.42 ± 1.44 %ID/g
- tissue uptake at 1 h (in vivo; [16]): 0.69 ± 0.22 %ID/g
- tissue uptake at 4 h (in vivo; [16]): 0.15 ± 0.04 %ID/g
- tissue uptake at 24 h (in vivo; [16]): 0.06 ± 0.03 %ID/g
- tissue uptake at 1 h (in vivo; [17]): 4.74 ± 1.5 %ID/g
- tissue uptake at 4 h (in vivo; [17]): 1.21 ± 0.86 %ID/g
- tissue uptake at 24 h (in vivo; [17]): 2.12 ± 1.36 %ID/g
- tissue uptake at 1 h (in vivo; [18]): 14.6 ± 4.89 %ID/g
- tissue uptake at 4 h (in vivo; [18]): 2.17 ± 0.39 %ID/g
- tissue uptake at 24 h (in vivo; [18]): 0.45 ± 0.08 %ID/g
- Average total body dose [4]: 3.3 μGy/MBq
- Dose Bone [4]: 4.0 μGy/MBq
- Dose Muscle [4]: 2.6 μGy/MBq
- Dose Red marrow [4]: 3.4 μGy/MBq
- Dose Small intestine wall [4]: 1.9 μGy/MBq
- biological half-life of clearance of remaining activity (rest of the body) to the bladder [4]: 13.3 h
- effective dose [4]: 4.3 mSv
